Laboratory results: patent US8309718B2, “4-pyrazolyl-N-arylpyrimidin-2-amines and 4-pyrazolyl-N-heteroarylpyrimidin-2-amines as janus kinase inhibitors” (Incyte Corporation, priority 2007, dated 2012)

molecular target: T1, human JAK2 (Homo sapiens, UniProt O60674); assay: In vitro JAK kinase assay (HTRF, phosphorylation of biotinylated peptide); format: biochemical; settings: catalytic domain a.a. 828-1132, 30 μM ATP, 500 nM peptide, room temperature 1 hr; read-out: JAK-2 IC50
T1 construct: JAK2 (a.a. 828-1132); His tag (N); made in house; host or cells: insect cells (baculovirus)
T1 sequence (O60674 828-1132): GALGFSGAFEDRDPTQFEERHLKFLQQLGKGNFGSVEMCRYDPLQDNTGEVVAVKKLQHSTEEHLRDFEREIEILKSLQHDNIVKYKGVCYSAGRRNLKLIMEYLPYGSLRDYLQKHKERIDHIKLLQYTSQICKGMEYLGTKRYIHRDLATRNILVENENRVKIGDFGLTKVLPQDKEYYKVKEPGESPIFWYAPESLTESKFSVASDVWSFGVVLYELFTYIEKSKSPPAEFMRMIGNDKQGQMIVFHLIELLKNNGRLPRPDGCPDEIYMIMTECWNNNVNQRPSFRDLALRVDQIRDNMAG
Outline: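 IC50 from HTRF detection (Eu-Py20 antibody, SA-APC) of biotinylated-peptide phosphorylation (500 nM), run 1 h at RT. Enzyme: N-His human JAK2 kinase domain a.a. 828-1132 from insect cells; ATP 30 μM; buffer 50 mM Tris pH 7.8 with NaCl, DTT, BSA.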

IC50, < 100 nM:
N#CCC1(n2cc(-c3ccnc(Nc4ccc(-n5cccn5)cc4)n3)cn2)CCN(C(=O)c2ccno2)CC1 (racemic) [Example 12, 2-(4-(4-(2-(4-(1H-pyrazol-1-yl)phenylamino)pyrimidin-4-yl)-1H-pyrazol-1-yl)-1-(isoxazole-5-carbonyl)piperidin-4-yl)acetonitrile]
N#CCC(C1CCCC1)n1cc(-c2ccnc(Nc3cccc(NC(=O)O[C@@H]4CCOC4)c3)n2)cn1 (stereo partly drawn) [Example 200, (R)-tetrahydrofuran-3-yl 3-(4-(1-(2-cyano-1-cyclopentylethyl)-1H-pyrazol-4-yl)pyrimidin-2-ylamino)phenylcarbamate]
Cn1ccc(Nc2nccc(-c3cnn(C(CC#N)CC4CCN(C(=O)c5ccc(F)cc5F)CC4)c3)n2)n1 (racemic) [Example 8, 4-(1-(2,4-difluorobenzoyl)piperidin-4-yl)-3-(4-(2-(1-methyl-1H-pyrazol-3-ylamino)pyrimidin-4-yl)-1H-pyrazol-1-yl)butanenitrile]
N#CCC(C1CCCC1)n1cc(-c2ccnc(Nc3ccc(C(=O)NC4CCN(c5ccccn5)C4)cc3)n2)cn1 (mixture of isomers) [Example 232, 4-(4-(1-(2-cyano-1-cyclopentylethyl)-1H-pyrazol-4-yl)pyrimidin-2-ylamino)-N-(1-(pyridin-2-yl)pyrrolidin-3-yl)benzamide]
CC(=O)Nc1ccc(Nc2ncc(C)c(-c3cnn(C(CC#N)CC4CCN(C(=O)c5ccc(F)cc5F)CC4)c3)n2)cc1 (racemic) [Example 69, N-(4-(4-(1-(1-cyano-3-(1-(2,4-difluorobenzoyl)piperidin-4-yl)propan-2-yl)-1H-pyrazol-4-yl)-5-methylpyrimidin-2-ylamino)phenyl)acetamide]
N#CCC(C1CCCC1)n1cc(-c2ccnc(Nc3cccc(C(=O)N4CCC(c5ccccc5)CC4)c3)n2)cn1 (racemic) [Example 155, 3-cyclopentyl-3-(4-(2-(3-(4-phenylpiperidine-1-carbonyl)phenylamino)pyrimidin-4-yl)-1H-pyrazol-1-yl)propanenitrile]
N#CCC(C1CCCC1)n1cc(-c2ccnc(Nc3ccc(C(=O)N4CCN(CCO)CC4)cc3)n2)cn1 (racemic) [Example 121, 3-cyclopentyl-3-(4-(2-(4-(4-(2-hydroxyethyl)piperazine-1-carbonyl)phenylamino)pyrimidin-4-yl)-1H-pyrazol-1-yl)propanenitrile]
N#CCC1(n2cc(-c3ccnc(Nc4ccc(C(=O)N5CC[C@@H](C#N)C5)cc4)n3)cn2)CC(C#N)C1 (stereo partly drawn) [Example 297, (R)-1-(4-(4-(1-(3-cyano-1-(cyanomethyl)cyclobutyl)-1H-pyrazol-4-yl)pyrimidin-2-ylamino)benzoyl)pyrrolidine-3-carbonitrile]
CCS(=O)(=O)N1CC(CC#N)(n2cc(-c3ccnc(Nc4ccc(C(=O)N5CCC(C#N)CC5)cc4)n3)cn2)C1 (racemic) [Example 319, 1-{4-[(4-{1-[3-(cyanomethyl)-1-(ethylsulfonyl)azetidin-3-yl]-1H-pyrazol-4-yl}pyrimidin-2-yl)amino]benzoyl}piperidine-4-carbonitrile]
CC(=O)N[C@@H]1CCN(C(=O)c2ccc(Nc3nccc(-c4cnn(C(CC#N)C5CC5)c4)n3)cc2)C1 (mixture of isomers) [Example 268, N-((3R)-1-(4-(4-(1-(2-cyano-1-cyclopropylethyl)-1H-pyrazol-4-yl)pyrimidin-2-ylamino)benzoyl)pyrrolidin-3-yl)acetamide]
CC(=O)Nc1ccc(Nc2ncc(C)c(-c3cnn(C(CC#N)CC4CCN(S(=O)(=O)c5ccn(C)n5)CC4)c3)n2)cc1 (racemic) [Example 51, N-(4-(4-(1-(1-cyano-3-(1-(1-methyl-1H-pyrazol-3-ylsulfonyl)piperidin-4-yl)propan-2-yl)-1H-pyrazol-4-yl)-5-methylpyrimidin-2-ylamino)phenyl)acetamide]
Cc1cnc(Nc2ccccc2)nc1-c1cnn(C(CC#N)C2CCCC2)c1 (racemic) [Example 73, 3-cyclopentyl-3-(4-(5-methyl-2-(phenylamino)pyrimidin-4-yl)-1H-pyrazol-1-yl)propanenitrile]
N#CCC1(n2cc(-c3ccnc(Nc4cccc(N5CCCC5=O)c4)n3)cn2)CC(C#N)C1 (single isomer, unassigned) [Example 348, 3-(cyanomethyl)-3-[4-(2-{[3-(2-oxopyrrolidin-1-yl)phenyl]amino}pyrimidin-4-yl)-1H-pyrazol-1-yl]cyclobutanecarbonitrile]
CN(C)C(=O)c1ccc(Nc2nccc(-c3cnn(C(CC#N)CC4CCN(S(=O)(=O)c5ccn(C)n5)CC4)c3)n2)cc1 (racemic) [Example 58, 4-(4-(1-(1-cyano-3-(1-(1-methyl-1H-pyrazol-3-ylsulfonyl)piperidin-4-yl)propan-2-yl)-1H-pyrazol-4-yl)pyrimidin-2-ylamino)-N,N-dimethylbenzamide]
